Measured values taken from patent US20260274829A1, “NEW E3 UBIQUITIN LIGASE LIGAND, PROTEIN DEGRADATION AGENT AND USE THEREOF” (GLUETACS THERAPEUTICS (SHANGHAI) CO., LTD., priority 2023, published 2026).

Target: T1, human Cereblon WT GST-tagged protein (Homo sapiens, UniProt Q96SW2)
T1 construct: purchased CISBIO 64BDCRBNPEH
Test: CRBN binding, HTRF CEREBLON BINDING kit
Details: CRBN binding, HTRF CEREBLON BINDING kit
Summary of the method: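 HTRF competition in which test compounds displace a Thalidomide-Re tracer from GST-tagged human Cereblon WT, detected with a GST Eu antibody. Incubation lasted 3 hours at room temperature, with emission read at 620 and 665 nm. Inhibition rate was derived from 665/620 ratios relative to blank and solvent control wells.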

T1 sequence (Q96SW2 whole entry): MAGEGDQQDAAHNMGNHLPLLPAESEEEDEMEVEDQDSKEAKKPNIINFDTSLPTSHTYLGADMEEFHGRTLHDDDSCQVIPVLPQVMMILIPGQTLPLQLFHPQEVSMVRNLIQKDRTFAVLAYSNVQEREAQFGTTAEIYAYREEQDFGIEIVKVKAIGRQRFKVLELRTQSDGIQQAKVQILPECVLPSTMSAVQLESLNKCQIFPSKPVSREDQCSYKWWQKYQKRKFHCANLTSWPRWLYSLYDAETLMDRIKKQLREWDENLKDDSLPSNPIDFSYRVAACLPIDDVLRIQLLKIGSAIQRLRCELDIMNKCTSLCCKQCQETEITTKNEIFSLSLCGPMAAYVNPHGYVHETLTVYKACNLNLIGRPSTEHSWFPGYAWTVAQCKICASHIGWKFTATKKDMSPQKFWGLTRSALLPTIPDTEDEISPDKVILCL

IC50 [nM]	SMILES
500 to 1000	O=C1CCN(c2cccc(CN3CCN(C4CCN(c5ccc(Nc6ncc7nc(Nc8ccccc8)n(C8CCCC8)c7n6)cc5)CC4)CC3)c2)C(=O)N1 [GT-05940, 1-(3-((4-(1-(4-((9-cyclopentyl-8-(phenylamino)-9H-purin-2-yl)amino)phenyl)piperidin-4-yl)piperazin-1-yl)methyl)phenyl)dihydropyrimidine-2,4(1H,3H)-dione]
1000 to 1900	O=C1CCN(c2ccc(CN3CCN(C4CCN(c5ccc(Nc6ncc7nc(Nc8ccccc8)n(C8CCCC8)c7n6)cc5)CC4)CC3)nc2)C(=O)N1 [GT-05941, 1-(6-((4-(1-(4-((9-cyclopentyl-8-(phenylamino)-9H-purin-2-yl)amino)phenyl)piperidin-4-yl)piperazin-1-yl)methyl)pyridin-3-yl)dihydropyrimidine-2,4(1H,3H)-dione]
500 to 1000	O=C1CCC(Nc2cccc(CN3CCN(C4CCN(c5ccc(Nc6ncc7nc(Nc8ccccc8)n(C8CCCC8)c7n6)cc5)CC4)CC3)c2)C(=O)N1 (stereo not drawn) [GT-05943, 3-((3-((4-(1-(4-((9-cyclopentyl-8-(phenylamino)-9H-purin-2-yl)amino)phenyl)piperidin-4-yl)piperazin-1-yl)methyl)phenyl)amino)piperidine-2,6-dione]
500 to 1000	COc1cc(N2CCC(N(C)Cc3ccc(N4CCC(=O)NC4=O)cn3)CC2)c(C)cc1Nc1ncc(Br)c(Nc2ccc3nccnc3c2P(C)(C)=O)n1 [GT-05952, 1-(6-(((1-(4-((5-bromo-4-((5-(dimethylphosphoryl)quinoxalin-6-yl)amino)pyrimidin-2-yl)amino)-5-methoxy-2-methylphenyl)piperidin-4-yl)(methyl)amino)methyl)pyridin-3-yl)dihydropyrimidine-2,4(1H,3H)-dione]
1000 to 1900	COc1cc(N2CCC(N3CCN(Cc4ccc(C5CCC(=O)NC5=O)cc4)CC3)CC2)c(C)cc1Nc1ncc(Br)c(Nc2ccc3nccnc3c2P(C)(C)=O)n1 (stereo not drawn) [GT-05999, 3-(4-((4-(1-(4-((5-bromo-4-((5-(dimethylphosphoryl)quinoxalin-6-yl)amino)pyrimidin-2-yl)amino)-5-methoxy-2-methylphenyl)piperidin-4-yl)piperazin-1-yl)methyl)phenyl)piperidine-2,6-dione]
1000 to 1900	COc1cc(N2CCC(N3CCN(Cc4ccc(N5CCC(=O)NC5=O)cn4)CC3)CC2)c(C)cc1Nc1ncc(Br)c(Nc2ccc3nccnc3c2P(C)(C)=O)n1 [GT-06003, 1-(6-((4-(1-(4-((5-bromo-4-((5-(dimethylphosphoryl)quinoxalin-6-yl)amino)pyrimidin-2-yl)amino)-5-methoxy-2-methylphenyl)piperidin-4-yl)piperazin-1-yl)methyl)pyridin-3-yl)dihydropyrimidine-2,4(1H,3H)-dione]
1000 to 1900	COC1CCN(c2nccc(Nc3cc4c(cn3)c(N3CCN(Cc5ccc(C6CCC(=O)NC6=O)cc5)CC3)nn4C(C)C)n2)CC1 (stereo not drawn) [GT-06036, 3-(4-((4-(1-isopropyl-6-((2-(4-methoxypiperidin-1-yl)pyrimidin-4-yl)amino)-1H-pyrazolo[4,3-c]pyridin-3-yl)piperazin-1-yl)methyl)phenyl)piperidine-2,6-dione]
500 to 1000	CC(C)n1nc(N2CCC(N3CCN(Cc4cccc(N5CCC(=O)NC5=O)c4)CC3)CC2)c2cnc(Nc3ccnc(-c4cnn(S(=O)(=O)C5CC5)c4)n3)cc21 [GT-06080, 1-(3-((4-(1-(6-((2-(1-(cyclopropylsulfonyl)-1H-pyrazol-4-yl)pyrimidin-4-yl)amino)-1-isopropyl-1H-pyrazolo[4,3-c]pyridin-3-yl)piperidin-4-yl)piperazin-1-yl)methyl)phenyl)dihydropyrimidine-2,4(1H,3H)-dione]
1000 to 1900	COC1CCN(c2nccc(Nc3cc4c(cn3)c(N3CCC(N(C)Cc5cccc(N6CCC(=O)NC6=O)c5)CC3)nn4C(C)C)n2)CC1 [GT-06122, 1-(3-(((1-(1-isopropyl-6-((2-(4-methoxypiperidin-1-yl)pyrimidin-4-yl)amino)-1H-pyrazolo[4,3-c]pyridin-3-yl)piperidin-4-yl)(methyl)amino)methyl)phenyl)dihydropyrimidine-2,4(1H,3H)-dione]
500 to 1000	COC1CCN(c2nccc(Nc3cc4c(cn3)c(N3CCC(N(C)Cc5cccc(NC6CCC(=O)NC6=O)c5)CC3)nn4C(C)C)n2)CC1 (stereo not drawn) [GT-06123, 3-((3-(((1-(1-isopropyl-6-((2-(4-methoxypiperidin-1-yl)pyrimidin-4-yl)amino)-1H-pyrazolo[4,3-c]pyridin-3-yl)piperidin-4-yl)(methyl)amino)methyl)phenyl)amino)piperidine-2,6-dione]
500 to 1000	O=C1CCC(c2ccc(CN3CCN(c4ccc(-c5cc(F)c6c(c5)C(=O)N(C(C(=O)Nc5nccs5)c5ncn7c5CCC7)C6)cc4)CC3)cc2)C(=O)N1 (stereo not drawn) [GT-06163, 2-(6,7-dihydro-5H-pyrrolo[1,2-c]imidazol-1-yl)-2-(6-(4-(4-(4-(2,6-dioxopiperidin-3-yl)benzyl)piperazin-1-yl)phenyl)-4-fluoro-1-oxoisoindolin-2-yl)-N-(thiazol-2-yl)acetamide]
500 to 1000	O=C1CCN(c2ccc(CN3CCN(c4ccc(-c5cc(F)c6c(c5)C(=O)N(C(C(=O)Nc5nccs5)c5ncn7c5CCC7)C6)cc4)CC3)cc2)C(=O)N1 (stereo not drawn) [GT-06164, 2-(6,7-dihydro-5H-pyrrolo[1,2-c]imidazol-1-yl)-2-(6-(4-(4-(4-(2,4-dioxotetrahydropyrimidin-1(2H)-yl)benzyl)piperazin-1-yl)phenyl)-4-fluoro-1-oxoisoindolin-2-yl)-N-(thiazol-2-yl)acetamide]
< 500	O=C1CCN(c2cccc(CN3CCN(c4ccc(-c5cc(F)c6c(c5)C(=O)N(C(C(=O)Nc5nccs5)c5ncn7c5CCC7)C6)cc4)CC3)c2)C(=O)N1 (stereo not drawn) [GT-06165, 2-(6,7-dihydro-5H-pyrrolo[1,2-c]imidazol-1-yl)-2-(6-(4-(4-(3-(2,4-dioxotetrahydropyrimidin-1(2H)-yl)benzyl)piperazin-1-yl)phenyl)-4-fluoro-1-oxoisoindolin-2-yl)-N-(thiazol-2-yl)acetamide]
500 to 1000	O=C1CCC(c2ccc(CN3C[C@H]4C[C@@H]3CN4c3ccc(-c4cc(F)c5c(c4)C(=O)N(C(C(=O)Nc4nccs4)c4ncn6c4CCC6)C5)cc3)cc2)C(=O)N1 (stereo partly drawn) [GT-06176, 2-(6,7-dihydro-5H-pyrrolo[1,2-c]imidazol-1-yl)-2-(6-(4-((1R,4R)-5-(4-(2,6-dioxopiperidin-3-yl)benzyl)-2,5-diazabicyclo[2.2.1]heptan-2-yl)phenyl)-4-fluoro-1-oxoisoindolin-2-yl)-N-(thiazol-2-yl)acetamide]
< 500	O=C1CCN(c2ccc(CN3C[C@H]4C[C@@H]3CN4c3ccc(-c4cc(F)c5c(c4)C(=O)N(C(C(=O)Nc4nccs4)c4ncn6c4CCC6)C5)cc3)cc2)C(=O)N1 (stereo partly drawn) [GT-06177, 2-(6,7-dihydro-5H-pyrrolo[1,2-c]imidazol-1-yl)-2-(6-(4-((1R,4R)-5-(4-(2,4-dioxotetrahydropyrimidin-1(2H)-yl)benzyl)-2,5-diazabicyclo[2.2.1]heptan-2-yl)phenyl)-4-fluoro-1-oxoisoindolin-2-yl)-N-(thiazol-2-yl)acetamide]
< 500	O=C1CCN(c2cccc(CN3C[C@H]4C[C@@H]3CN4c3ccc(-c4cc(F)c5c(c4)C(=O)N(C(C(=O)Nc4nccs4)c4ncn6c4CCC6)C5)cc3)c2)C(=O)N1 (stereo partly drawn) [GT-06178, 2-(6,7-dihydro-5H-pyrrolo[1,2-c]imidazol-1-yl)-2-(6-(4-((1R,4R)-5-(3-(2,4-dioxotetrahydropyrimidin-1(2H)-yl)benzyl)-2,5-diazabicyclo[2.2.1]heptan-2-yl)phenyl)-4-fluoro-1-oxoisoindolin-2-yl)-N-(thiazol-2-yl)acetamide]
500 to 1000	O=C1CCC(Nc2cccc(CN3C[C@H]4C[C@@H]3CN4c3ccc(-c4cc(F)c5c(c4)C(=O)N(C(C(=O)Nc4nccs4)c4ncn6c4CCC6)C5)cc3)c2)C(=O)N1 (stereo partly drawn) [GT-06179, 2-(6,7-dihydro-5H-pyrrolo[1,2-c]imidazol-1-yl)-2-(6-(4-((1R,4R)-5-(3-((2,6-dioxopiperidin-3-yl)amino)benzyl)-2,5-diazabicyclo[2.2.1]heptan-2-yl)phenyl)-4-fluoro-1-oxoisoindolin-2-yl)-N-(thiazol-2-yl)acetamide]
500 to 1000	O=C1CCN(c2ccc(CN3C[C@H]4C[C@@H]3CN4c3ccc(-c4cc(F)c5c(c4)C(=O)N(C(C(=O)Nc4nccs4)c4ncn6c4CCC6)C5)cc3)nc2)C(=O)N1 (stereo partly drawn) [GT-06190, 2-(6,7-dihydro-5H-pyrrolo[1,2-c]imidazol-1-yl)-2-(6-(4-((1R,4R)-5-((5-(2,4-dioxotetrahydropyrimidin-1(2H)-yl)pyridin-2-yl)methyl)-2,5-diazabicyclo[2.2.1]heptan-2-yl)phenyl)-4-fluoro-1-oxoisoindolin-2-yl)-N-(thiazol-2-yl)acetamide]
500 to 1000	O=C1CCN(c2ccc(CN3CCN(c4ccc(-c5cc(F)c6c(c5)C(=O)N(C(C(=O)Nc5nccs5)c5ncn7c5CCC7)C6)cc4)CC3)nc2)C(=O)N1 (stereo not drawn) [GT-06229, 2-(6,7-dihydro-5H-pyrrolo[1,2-c]imidazol-1-yl)-2-(6-(4-(4-((5-(2,4-dioxotetrahydropyrimidin-1(2H)-yl)pyridin-2-yl)methyl)piperazin-1-yl)phenyl)-4-fluoro-1-oxoisoindolin-2-yl)-N-(thiazol-2-yl)acetamide]
< 500	O=C1CCC(c2ccc(CN3CCN(C4CCN(c5ccc(-c6cc(F)c7c(c6)C(=O)N(C(C(=O)Nc6nccs6)c6ncn8c6CCC8)C7)cc5)CC4)CC3)cc2)C(=O)N1 (stereo not drawn) [GT-06243, 2-(6,7-dihydro-5H-pyrrolo[1,2-c]imidazol-1-yl)-2-(6-(4-(4-(4-(4-(2,6-dioxopiperidin-3-yl)benzyl)piperazin-1-yl)piperidin-1-yl)phenyl)-4-fluoro-1-oxoisoindolin-2-yl)-N-(thiazol-2-yl)acetamide]
500 to 1000	O=C1CCN(c2ccc(CN3CCN(C4CCN(c5ccc(-c6cc(F)c7c(c6)C(=O)N(C(C(=O)Nc6nccs6)c6ncn8c6CCC8)C7)cc5)CC4)CC3)cc2)C(=O)N1 (stereo not drawn) [GT-06244, 2-(6,7-dihydro-5H-pyrrolo[1,2-c]imidazol-1-yl)-2-(6-(4-(4-(4-(4-(2,4-dioxotetrahydropyrimidin-1(2H)-yl)benzyl)piperazin-1-yl)piperidin-1-yl)phenyl)-4-fluoro-1-oxoisoindolin-2-yl)-N-(thiazol-2-yl)acetamide]
